Laboratory results as given in ChEMBL document CHEMBL3580612, “Top-down Targeted Metabolomics Reveals a Sulfur-Containing Metabolite with Inhibitory Activity against Angiotensin-Converting Enzyme in Asparagus officinalis” (J Nat Prod, 2015).

Biological target: Angiotensin-converting enzyme (Homo sapiens, UniProt P12821)
Assay: Inhibition of ACE (unknown origin) using 3-Hydroxybutylyl-Gly-Gly-Gly substrate assessed as reduction in 3-Hyroxybutylic acid generation incubated for 1 hr by colorimetric assay; call rule not given here

Angiotensin-converting enzyme, sequence (P12821 whole entry): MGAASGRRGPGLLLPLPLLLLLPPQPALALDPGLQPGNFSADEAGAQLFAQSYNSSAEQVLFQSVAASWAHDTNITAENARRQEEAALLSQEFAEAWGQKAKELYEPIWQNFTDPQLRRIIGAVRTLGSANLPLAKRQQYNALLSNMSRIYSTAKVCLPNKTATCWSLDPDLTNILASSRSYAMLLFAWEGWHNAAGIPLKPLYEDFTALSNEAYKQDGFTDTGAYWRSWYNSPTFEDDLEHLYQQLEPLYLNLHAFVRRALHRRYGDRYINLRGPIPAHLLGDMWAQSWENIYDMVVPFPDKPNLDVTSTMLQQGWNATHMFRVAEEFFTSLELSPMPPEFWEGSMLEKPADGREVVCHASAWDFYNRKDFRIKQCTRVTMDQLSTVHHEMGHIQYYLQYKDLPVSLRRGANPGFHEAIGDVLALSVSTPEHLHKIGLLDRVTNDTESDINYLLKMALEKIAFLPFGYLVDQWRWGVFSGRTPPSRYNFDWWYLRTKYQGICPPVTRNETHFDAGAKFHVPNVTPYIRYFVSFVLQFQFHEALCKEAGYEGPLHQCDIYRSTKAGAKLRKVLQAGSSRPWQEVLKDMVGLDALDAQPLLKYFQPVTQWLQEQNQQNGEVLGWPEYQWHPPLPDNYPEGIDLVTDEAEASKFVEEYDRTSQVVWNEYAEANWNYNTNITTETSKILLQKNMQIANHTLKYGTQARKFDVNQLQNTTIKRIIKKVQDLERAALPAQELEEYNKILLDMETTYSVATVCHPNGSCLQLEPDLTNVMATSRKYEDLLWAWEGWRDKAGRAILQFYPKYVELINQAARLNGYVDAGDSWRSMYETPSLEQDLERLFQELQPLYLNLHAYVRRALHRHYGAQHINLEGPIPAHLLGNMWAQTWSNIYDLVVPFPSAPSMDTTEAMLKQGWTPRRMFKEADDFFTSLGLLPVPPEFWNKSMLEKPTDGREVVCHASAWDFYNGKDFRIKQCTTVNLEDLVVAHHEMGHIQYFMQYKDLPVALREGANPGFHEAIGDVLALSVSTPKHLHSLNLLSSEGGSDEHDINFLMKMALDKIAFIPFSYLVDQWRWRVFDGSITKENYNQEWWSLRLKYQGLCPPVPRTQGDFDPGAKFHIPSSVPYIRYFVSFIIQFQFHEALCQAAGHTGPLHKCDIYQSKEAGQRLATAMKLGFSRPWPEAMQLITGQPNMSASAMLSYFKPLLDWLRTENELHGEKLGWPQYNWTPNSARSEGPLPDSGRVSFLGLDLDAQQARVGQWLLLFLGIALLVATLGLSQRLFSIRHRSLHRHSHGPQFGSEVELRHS

N=C(N)NCCC[C@@H](N)C(=O)O
IC50: Not Active

O=C(OC1O[C@H](CO)[C@@H](O)[C@H](O)[C@H]1O)C1CSSC1 (stereo not given in full)
IC50 (read-out: IC50): 347 µM

O=C(O)C1CSSC1
IC50: Not Active

N=C(N)NCCC[C@H](N)C(=O)O [ARGININE]
IC50: Not Active

N[C@@H](CC(=O)O)C(=O)O [ASPARTIC ACID]
IC50: Not Active
